Experiment: in vitro
Conditions: human, hela cells, % viability
With `CC(C)C(=O)N1CCC(c2nc3ccccn3c2NC(C)(C)C)CC1` [CBK284745] the viability at 28.5 h, 10 µM was 95%.
Molecule `CCN(CC)C(=O)c1cnoc1-c1ccc(Br)cc1` [CBK153725] has a viability at 28.5 h, 10 µM of 94.4%.
In the case of `Cn1cc(CN2CCC(CNc3ccccn3)C2)cn1` (stereo not drawn) [CBK304705], the viability at 28.5 h, 10 µM is reported as 101%.
Molecule `CCOC(=O)N1CCCN(C(=O)OCC)CC1` [CBK034324] has a viability at 28.5 h, 10 µM of 101%.
With `O=C(O)C[C@@H]1CCN(C(=O)Nc2ccccc2)C[C@@H]1CCN1CCCCC1` [CBK288782] the viability at 28.5 h, 10 µM was 110%.
For `COc1ccc(C(NC(=O)C2CCCN(C(=O)NC(=O)c3ccccc3)C2)c2ccccc2C)cn1` (stereo not drawn) [CBK075023], the viability at 28.5 h, 10 µM was 90.9%.
In the case of `Cc1cc(C(=O)C(C)Sc2nnc(N)s2)c(C)n1-c1ccccc1` (stereo not drawn) [CBK297916], the viability at 28.5 h, 10 µM is reported as 87%.
With `CC1=CC(=O)OC1(O)c1ccc(Br)cc1` (stereo not drawn) [CBK022687] the viability at 28.5 h, 10 µM was 91.6%.
Molecule `CC(=O)c1ccc(OCCn2c(SCC(=O)O)nc3ccccc32)cc1` [CBK287115] has a viability at 28.5 h, 10 µM of 88.8%.
`CN(Cc1nncn1C)C(=O)c1cnc2c(c1)c(C(C)(C)C)nn2C` [CBK304154] showed a viability at 28.5 h, 10 µM of 85.4%.
Work on `CC(C)n1c(=O)n(CC(=O)NCc2ccccc2)c2cccnc21` [CBK283758] yielded a viability at 28.5 h, 10 µM of 99.8%.
For `CCCN1CCC(NC(=O)Cn2c(C3CC3)nc3ccccc32)CC1` [CBK304917], the viability at 28.5 h, 10 µM was 89.2%.
Work on `COc1ccc(-c2ccc(CN(Cc3ccc4c(c3)OCO4)CC(C)O)cc2)cc1` (stereo not drawn) [CBK286470] yielded a viability at 28.5 h, 10 µM of 95%.
Work on `O=C(O)/C=C/c1cccc(-c2cn3ccnc3c(NCc3cccnc3)n2)c1` [CBK066283] yielded a viability at 28.5 h, 10 µM of 98.8%.
Molecule `CC(C(=O)Nc1sc2c(c1C(=O)NCc1ccco1)CCCC2)N1C(=O)c2ccccc2C1=O` (stereo not drawn) [CBK265603] has a viability at 28.5 h, 10 µM of 86.6%.
In the case of `Cc1nc(CN2CCCN(C(=O)c3cccc(C#N)c3)CC2)cs1` [CBK305363], the viability at 28.5 h, 10 µM is reported as 83.6%.
In the case of `Clc1ccc(OCc2nc3ccccc3n2CCOc2ccccc2)c(Cl)c1` [CBK264728], the viability at 28.5 h, 10 µM is reported as 94.8%.
Work on `O=C1CCC(CNS(=O)(=O)c2ccccc2Cl)N1` (stereo not drawn) [CBK304850] yielded a viability at 28.5 h, 10 µM of 103%.
In the case of `CN(C)CCN(Cc1ccncc1)Cc1ccsc1` [CBK283206], the viability at 28.5 h, 10 µM is reported as 102%.
In the case of `Cc1ncsc1CCC(=O)NCC1CCN(c2ccccc2F)C1` (stereo not drawn) [CBK304675], the viability at 28.5 h, 10 µM is reported as 96.5%.
For `CN1CCN(C(=O)c2ccsc2NS(=O)(=O)/C=C/c2ccccc2)CC1` [CBK042267], the viability at 28.5 h, 10 µM was 104%.
`CC(=O)c1c(C)nn(C(C)CC(=O)Nc2ccc(Cl)c(Cl)c2)c1C` (stereo not drawn) [CBK270021] showed a viability at 28.5 h, 10 µM of 87.3%.
`CC1CCN(S(=O)(=O)c2cccc(C(=O)NNC(=O)c3ccco3)c2)CC1` [CBK266796] showed a viability at 28.5 h, 10 µM of 92.2%.
`COc1ccc(OC)c(S(=O)(=O)N2CCCC(C(=O)O)C2)c1` (stereo not drawn) [CBK269225] gave a viability at 28.5 h, 10 µM of 95%.
In the case of `CC1CCc2nn(CCNC(=O)C3CCCC3)c(=O)cc2C1` (stereo not drawn) [CBK284484], the viability at 28.5 h, 10 µM is reported as 91.1%.
With `O=c1ccc2c(-c3ccsc3)ccnc2[nH]1` [CBK073724] the viability at 28.5 h, 10 µM was 91.5%.
`COc1ccc(S(=O)(=O)NCCN2CCOCC2)c(Cl)c1Cl` [CBK269999] showed a viability at 28.5 h, 10 µM of 95%.
In the case of `Cc1ccc(C(C)(C)CC(C)NC2C3CC4CC(C3)CC2C4)o1` (stereo not drawn) [CBK262871], the viability at 28.5 h, 10 µM is reported as 93.9%.
In the case of `CCCc1n[nH]c(=S)n1CC(=O)Nc1cccc(-n2ncc(C(=O)OCC)c2C)c1` [CBK297746], the viability at 28.5 h, 10 µM is reported as 90.2%.
For `O=C(O)c1ccc(Nc2ncnc3c2cnn3Cc2ccccc2)cc1` [CBK263803], the viability at 28.5 h, 10 µM was 92.1%.
Molecule `CCOC(=O)CCCNC(=O)N1CCN(c2ccccc2)CC1` [CBK155209] has a viability at 28.5 h, 10 µM of 94.6%.
`Nc1ccccc1Sc1ccc(C(F)(F)F)cn1` [CBK093782] showed a viability at 28.5 h, 10 µM of 91.9%.
In the case of `CCCCC(c1cccnc1)N(C)C(=O)Cn1ccccc1=O` (stereo not drawn) [CBK306936], the viability at 28.5 h, 10 µM is reported as 104%.
`CCN(CC)C(=O)c1c(NC(=O)c2cccs2)sc2c1CCC2` [CBK307096] showed a viability at 28.5 h, 10 µM of 93%.
With `O=C(c1cccs1)n1ccc(-c2ccc3c(c2)CCO3)n1` [CBK006090] the viability at 28.5 h, 10 µM was 97.6%.

Same assay, conditions: human, hela cells, % viability, bulk resorufin, single well
In the case of `O=C1NC(=O)C(=NNc2ccc(S(=O)(=O)O)cc2)C(=O)N1` [CBK261439], the viability at 28.5 h, 10 µM is reported as 88.7%.
